One may read the Ki as the dissociation constant of the complex between target and ligand, obtained from inhibition or displacement.

Bounds are passed on as bounds.

The target in one assay is T1, Enkephalinase (Rattus norvegicus, UniProt P07861).
T1 construct: The enzyme is extracted from the microvilli fraction by using Triton X-100; from tissue; host or cells: rat kidney (microvilli fraction)
T1 sequence (P07861 1-750): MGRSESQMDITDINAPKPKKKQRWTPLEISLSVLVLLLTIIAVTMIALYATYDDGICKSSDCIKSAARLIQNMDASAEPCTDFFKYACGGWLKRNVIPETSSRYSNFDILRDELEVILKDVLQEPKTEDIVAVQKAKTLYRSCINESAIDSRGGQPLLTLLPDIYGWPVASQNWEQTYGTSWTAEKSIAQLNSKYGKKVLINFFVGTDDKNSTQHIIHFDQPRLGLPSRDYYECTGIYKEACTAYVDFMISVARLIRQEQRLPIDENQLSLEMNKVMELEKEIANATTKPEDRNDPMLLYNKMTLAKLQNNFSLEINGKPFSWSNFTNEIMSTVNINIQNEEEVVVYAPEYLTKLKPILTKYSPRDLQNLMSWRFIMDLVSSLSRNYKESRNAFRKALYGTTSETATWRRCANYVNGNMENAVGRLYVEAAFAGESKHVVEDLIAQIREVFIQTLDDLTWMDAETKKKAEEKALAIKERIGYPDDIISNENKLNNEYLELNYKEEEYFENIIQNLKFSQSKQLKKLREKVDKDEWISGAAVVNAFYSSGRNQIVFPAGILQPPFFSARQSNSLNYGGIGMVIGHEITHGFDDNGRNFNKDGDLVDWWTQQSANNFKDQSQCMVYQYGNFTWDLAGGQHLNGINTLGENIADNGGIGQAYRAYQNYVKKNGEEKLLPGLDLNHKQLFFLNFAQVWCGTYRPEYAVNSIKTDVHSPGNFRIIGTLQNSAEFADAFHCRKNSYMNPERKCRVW
The assay can be described thus: Enkephalinase inhibition, fluorometric enzyme assay. It is filed as biochemical. The conditions noted are these: enzyme partially purified from rat kidney; 50mM HEPES buffer (pH 7.4); 12 µM substrate dansyl-D-AlaGly(p-nitro)PheGly; 25°C. The text has this:
Enkephalinase is partially purified from rat kidney. The enzyme is extracted from the microvilli fraction by using Triton X-100 according to the method of Malfroy and Schwartz [J.Biol.Chem. 259, 14365-14370 (1984)] or by using a proteolytic treatment according to the method of Almenoff and Orlowski [Biochem. 22, 590-599 (1983)]. The enzyme is further purified by anion exchange chromatography (Mono Q™ column, Pharmacia) using a Pharmacia FPLC system. The enzyme activity may be measured by the fluorometric methods of Florentin et al. [Anal.Biochem. 141, 62-69 (1984)] or of Almenoff and Orlowski [J.Neurochemistry 42, 151-157 (1984)]. The enzyme is assayed in 50mM HEPES buffer (pH 7.4) in a 3.0 mL reaction volume containing 12 µM of the substrate dansyl-D-AlaGly(p-nitro)PheGly (Km=40µM) at 25°C. The substrate (and inhibitor) is added from a concentrated stock solution in DMSO (up to 0.1 mL DMSO final volume). The enzyme in a small volume (approximately 0.1 µg of FPLC purified protein) is added to initiate the reaction and the rate of fluorescense increase is recorded continuously using a fluorometer (excitation at 339nm, emission at 562nm).

For another assay, the target named is ACE (Homo sapiens, UniProt P12821). The assay can be described thus: ACE inhibition, spectrophotometric enzyme assay. It is filed as biochemical. The conditions noted are these: spectrophotometric substrate of Holmquist et al.; buffer system of Ryan. From the text: The enzymatic activity of ACE is monitored using the spectrophotometric substrate described by Holmquist et al. [Anal.Biochem. 95, 540-548 (1979)] and the buffer system described by Ryan [Methods of Enzymatic Analysis, 3rd ed., H. U. Bergmeyer, editor; vol. V, Verlag Chemie, Weinheim, 1983, pp. 20-34].
ACE, sequence (P12821 30-1306, species assumed): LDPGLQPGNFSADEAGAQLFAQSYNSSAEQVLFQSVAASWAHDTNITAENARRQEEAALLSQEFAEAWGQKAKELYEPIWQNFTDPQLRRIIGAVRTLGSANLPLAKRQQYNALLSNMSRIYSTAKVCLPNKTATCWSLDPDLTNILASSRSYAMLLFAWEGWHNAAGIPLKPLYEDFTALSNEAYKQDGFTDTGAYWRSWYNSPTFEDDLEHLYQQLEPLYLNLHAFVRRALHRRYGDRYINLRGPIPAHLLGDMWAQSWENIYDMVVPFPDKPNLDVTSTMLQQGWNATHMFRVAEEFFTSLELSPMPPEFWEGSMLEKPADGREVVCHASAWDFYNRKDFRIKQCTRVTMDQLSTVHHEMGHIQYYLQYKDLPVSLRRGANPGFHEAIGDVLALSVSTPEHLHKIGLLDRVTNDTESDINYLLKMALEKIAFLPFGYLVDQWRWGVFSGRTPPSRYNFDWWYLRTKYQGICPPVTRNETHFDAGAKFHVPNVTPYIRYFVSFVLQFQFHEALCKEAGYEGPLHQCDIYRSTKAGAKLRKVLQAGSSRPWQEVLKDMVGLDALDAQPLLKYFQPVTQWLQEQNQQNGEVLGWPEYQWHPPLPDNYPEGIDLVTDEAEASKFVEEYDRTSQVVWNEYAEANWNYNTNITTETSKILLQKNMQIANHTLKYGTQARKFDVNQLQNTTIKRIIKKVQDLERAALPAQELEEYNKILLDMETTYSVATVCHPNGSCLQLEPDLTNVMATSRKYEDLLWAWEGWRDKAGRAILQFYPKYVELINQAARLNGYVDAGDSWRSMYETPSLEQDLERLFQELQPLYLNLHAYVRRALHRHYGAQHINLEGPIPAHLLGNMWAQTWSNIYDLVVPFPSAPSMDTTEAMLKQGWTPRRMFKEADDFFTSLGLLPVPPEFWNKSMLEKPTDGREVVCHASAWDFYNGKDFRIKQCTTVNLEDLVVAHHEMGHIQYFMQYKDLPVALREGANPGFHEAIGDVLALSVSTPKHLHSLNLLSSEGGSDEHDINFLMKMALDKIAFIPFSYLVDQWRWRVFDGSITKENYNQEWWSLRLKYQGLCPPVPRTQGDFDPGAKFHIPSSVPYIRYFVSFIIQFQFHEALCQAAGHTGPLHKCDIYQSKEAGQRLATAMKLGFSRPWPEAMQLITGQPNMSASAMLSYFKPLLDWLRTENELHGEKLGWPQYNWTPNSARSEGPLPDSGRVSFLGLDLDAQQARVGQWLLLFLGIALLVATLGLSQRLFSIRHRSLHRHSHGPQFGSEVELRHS

Regarding `O=C(O)CC1(C(=O)N[C@H]2Cc3ccccc3[C@H]3CCC[C@@H](C(=O)O)N3C2=O)CCCC1` (relative stereo) [100,137, [4S-[4α, 7α(R*), 12bβ]]-7-[(1-Carboxymethyl-cyclopent-1-yl)carbonylamino]-1,2,3,4,6,7,8,12b-octahydro-6-oxopyrido[2,1-a][2]benzazepine-4-carboxylic acid], the Ki on Enkephalinase came to 400 pM. In the case of `O=C(O)CC1(C(=O)N[C@H]2Cc3ccccc3[C@H]3CCC[C@@H](C(=O)O)N3C2=O)Cc2ccccc2C1` (relative stereo) [102,353, [4S-[4α, 7α(R*), 12bβ]]-7-[(2-Carboxymethyl-indan-2-yl)carbonylamino]-1,2,3,4,6,7,8,12b-octahydro-6-oxopyrido[2,1-a][2]benzazepine-4-carboxylic acid], the values for the Ki at Enkephalinase and at ACE were under 200 pM and under 104000 pM, respectively.

For the origin of these results see patent publication EP0534396B1, “2-Substituted indane-2-carboxyalkyl derivatives useful as inhibitors of enkephalinase and ace” (MERRELL PHARMACEUTICALS INC., priority 1991, dated 1993).
